This passage reports IC50 results from publication PMC7503713, “GANT61 Reduces Hedgehog Molecule (GLI1) Expression and Promotes Apoptosis in Metastatic Oral Squamous Cell Carcinoma Cells” (International Journal of Molecular Sciences, 2020).

Holding throughout (type): cell-based, human
For assay [1], the system named is HepG2. Put plainly: alamarBlue cytotoxicity assay, HepG2. The note with it: Homo sapiens, 72 h of incubation. The protocol: (§1) To assess the cytotoxicity of the GLI inhibitor GANT61 (Sigma-Aldrich, St. Louis, MO, USA) in tumor and non-tumor cell lines, an alamarBlue assay (Sigma-Aldrich Chemical Co, St. Louis, MO, USA) was performed after 72 h of exposure to the inhibitor, as described by Ahmed et al., 1994 [46]. Cells were distributed on 96-well plates at a density of 7 × 10^4 cells/mL for adhered cells, and 3 × 10^5 cells/mL for cells in suspension. All tested compounds were dissolved in DMSO, added to wells containing 100 µL of cells in complete medium, and then incubated for 72 h. Eight concentrations of GANT61 (0.19 to 50 µg/mL), Doxorubicin (Laboratory IMA S.A.I.C., Buenos Aires, Argentina), and 5-Fluorouracil (5-FU, Sigma-Aldrich, St. Louis, MO, USA), both used as positive controls at concentrations ranging from 0.03 to 5 µg/mL, were added to respective wells. Cells treated with the vehicle (0.5% DMSO) used to dilute the tested compounds were used as negative controls. Before the end of the incubation period (4 h for cell lines and 24 h for PBMCs), 20 µL of alamarBlue stock solution (resazurin, Sigma-Aldrich, St. Louis, MO, USA) was added to each well. Absorbance was measured at 570 nm (reduced) and 595 nm (oxidized) wavelengths, using a Spectramax 190 plate reader (Molecular Devices; Sunnyvale, CA, USA).
(§2) Statistical analyses were performed, using GraphPad Prism v. 6.03 (GraphPad Software, Inc., San Diego, USA). Data were analyzed according to distribution along the normal Gaussian curve. IC50 values were obtained through non-linear regression, using results from three independent experiments carried out in duplicate. Differences between groups resulting from in vitro assays were evaluated by ANOVA (analysis of variance) testing, followed by the Student–Newman–Keuls test. This study considered a level of significance, corresponding to alpha (α) or “p” value, when results were less than or equal to 5%.

Assay [2] concerns HSC3. Put plainly: alamarBlue cytotoxicity assay, HSC3. Conditions: Homo sapiens, HSC-3, 72 h of incubation. The protocol:
For cytotoxicity assessments, this study primarily focused on the highly metastatic HSC3 OSCC cell line (JCRB Cell Bank, Osaka, Japan) and employed other histological tumor cell types and non-tumor cells (Supplementary Table S1). HSC3 cells were placed in flasks ([…], 250 mL volume) containing DMEM medium (Gibco, Lif Technologies, Gaithesburg, MD, USA) supplemented with 10% fetal bovine serum (FBS, Gibco, Life Technologies, Gaithesburg, MD, USA) 1% penicillin, 1% streptomycin (Gibco, Life Technologies, Gaithesburg, MD, USA), and 0.8% hydrocortisone (Sigma-Aldrich, St. Louis, MO, USA). Cells were cultured and kept in incubators, under an atmosphere of 5% CO2 at 37 °C. Trypsinization was used to dissociate cells when cell growth reached the necessary confluence, i.e., 70 to 80% of the total culture flask volume. Cell cultures were tested periodically for mycoplasma contamination and evaluated by using a luminometer, according to the MycoAlert^TM PLUS protocol (Lonza, Walkersville Inc., Walkersville, MD, USA, 2012).
as §1
Statistical analyses were performed, using GraphPad Prism v. 6.03 (GraphPad Software, Inc., San Diego, USA). Data were analyzed according to distribution along the normal Gaussian curve. […] Differences between groups resulting from in vitro assays were evaluated by ANOVA (analysis of variance) testing, followed by the Student–Newman–Keuls test. […]

For assay [3], the system named is K562. In words: alamarBlue cytotoxicity assay, K562. The note with it: Homo sapiens, 72 h of incubation. The protocol: as §1, §2
Assay [4] deals with APC03. Put plainly: alamarBlue cytotoxicity assay, APC03. The note with it: Homo sapiens, 72 h of incubation. As for the experimental part:
as §1, with “Cells treated with the vehicle (0.5% DMSO) used to dilute the tested compounds were used as negative controls. Before the end of the incubation period (4 h for cell lines and 24 h for PBMCs), 20 µL of alamarBlue stock solution (resazurin, Sigma-Aldrich, St. Louis, MO, USA) was added to each well.” left out
(§3) Statistical analyses were performed, using GraphPad Prism v. […] Data were analyzed according to distribution along the normal Gaussian curve. […] Differences between groups resulting from in vitro assays were evaluated by ANOVA (analysis of variance) testing, followed by the Student–Newman–Keuls test. […]

Assay [5] relates to SCC9. Put plainly: alamarBlue cytotoxicity assay, SCC9. The note with it: Homo sapiens, SCC-9, 72 h of incubation. As for the experimental part: as §1, §2
Assay [6] relates to HT-29. Put plainly: alamarBlue cytotoxicity assay, HT-29. Conditions: Homo sapiens; HT-29, alamarBlue, 72 h of incubation. As for the experimental part: as §1, with “Cells treated with the vehicle (0.5% DMSO) used to dilute the tested compounds were used as negative controls. Before the end of the incubation period (4 h for cell lines and 24 h for PBMCs), 20 µL of alamarBlue stock solution (resazurin, Sigma-Aldrich, St. Louis, MO, USA) was added to each well.” left out
as §3

For assay [7], the system named is HaCat. In words: alamarBlue cytotoxicity assay, HaCat. Conditions: Homo sapiens, 72 h of incubation. As for the experimental part:
as §1, with “Cells treated with the vehicle (0.5% DMSO) used to dilute the tested compounds were used as negative controls. Before the end of the incubation period (4 h for cell lines and 24 h for PBMCs), 20 µL of alamarBlue stock solution (resazurin, Sigma-Aldrich, St. Louis, MO, USA) was added to each well.” left out
as §3

For assay [8], the system named is CAL27. Put plainly: alamarBlue cytotoxicity assay, CAL27. Conditions: Homo sapiens, CAL-27, 72 h of incubation. As for the experimental part: as §1, §2
Assay [9] deals with AGP01. Put plainly: alamarBlue cytotoxicity assay, AGP01. The note with it: Homo sapiens, 72 h of incubation. As for the experimental part: as §1, with “Cells treated with the vehicle (0.5% DMSO) used to dilute the tested compounds were used as negative controls. Before the end of the incubation period (4 h for cell lines and 24 h for PBMCs), 20 µL of alamarBlue stock solution (resazurin, Sigma-Aldrich, St. Louis, MO, USA) was added to each well.” left out
as §3

Assay [10] deals with PBMC. In words: alamarBlue cytotoxicity assay, PBMC. The note with it: Homo sapiens, 72 h of incubation. The protocol:
Human peripheral blood mononuclear cells (PBMC) lymphocytes and monocytes) were obtained from the peripheral blood of healthy, non-smoking volunteers aged 25–35 years. None of the volunteers had used any type of drug or medication for at least 15 days prior to collection. Blood collection (5 mL) was performed in heparinized vials by trained professionals at the Laboratory of Tissue Engineering and Immunopharmacology (LETI, IGM-FIOCRUZ, Salvador, Brazil), using sterile disposable syringes. PBMCs were isolated by a standard protocol described by Dias et al. (2018). The institutional review board of the Gonçalo Moniz Institution, Oswaldo Cruz Foundation (IGM-FIOCRUZ), in Salvador, Bahia, Brazil, approved all experimental protocols (No.031019/2013). All participants provided written informed consent prior to participation in the study.
To assess the cytotoxicity of the GLI inhibitor GANT61 (Sigma-Aldrich, St. Louis, MO, USA) in tumor and non-tumor cell lines, an alamarBlue assay (Sigma-Aldrich Chemical Co, St. Louis, MO, USA) was performed after 72 h of exposure to the inhibitor, as described by Ahmed et al., 1994 [46]. Cells were distributed on 96-well plates at a density of 7 × 10^4 cells/mL for adhered cells, and 3 × 10^5 cells/mL for cells in suspension. All tested compounds were dissolved in DMSO, added to wells containing 100 µL of cells in complete medium, and then incubated for 72 h. […] Absorbance was measured at 570 nm (reduced) and 595 nm (oxidized) wavelengths, using a Spectramax 190 plate reader (Molecular Devices; Sunnyvale, CA, USA).
as §3

For assay [11], the system named is SCC15. Put plainly: alamarBlue cytotoxicity assay, SCC15. Conditions: Homo sapiens, SCC-15, 72 h of incubation. As for the experimental part: as §1, with “Cells treated with the vehicle (0.5% DMSO) used to dilute the tested compounds were used as negative controls. Before the end of the incubation period (4 h for cell lines and 24 h for PBMCs), 20 µL of alamarBlue stock solution (resazurin, Sigma-Aldrich, St. Louis, MO, USA) was added to each well.” left out
as §3

The test system of assay [12] is SCC4. In words: alamarBlue cytotoxicity assay, SCC4. Conditions: Homo sapiens, SCC-4, 72 h of incubation. The protocol: as §1, with “Cells treated with the vehicle (0.5% DMSO) used to dilute the tested compounds were used as negative controls. Before the end of the incubation period (4 h for cell lines and 24 h for PBMCs), 20 µL of alamarBlue stock solution (resazurin, Sigma-Aldrich, St. Louis, MO, USA) was added to each well.” left out
as §3

Assay [13] relates to APC02. Put plainly: alamarBlue cytotoxicity assay, APC02. Conditions: Homo sapiens, 72 h of incubation. The protocol: as §1, with “Cells treated with the vehicle (0.5% DMSO) used to dilute the tested compounds were used as negative controls. Before the end of the incubation period (4 h for cell lines and 24 h for PBMCs), 20 µL of alamarBlue stock solution (resazurin, Sigma-Aldrich, St. Louis, MO, USA) was added to each well.” left out
as §3

Assay [14] relates to HL60. Put plainly: alamarBlue cytotoxicity assay, HL60. The note with it: Homo sapiens, HL-60, 72 h of incubation. As for the experimental part:
as §1, with “Cells treated with the vehicle (0.5% DMSO) used to dilute the tested compounds were used as negative controls. Before the end of the incubation period (4 h for cell lines and 24 h for PBMCs), 20 µL of alamarBlue stock solution (resazurin, Sigma-Aldrich, St. Louis, MO, USA) was added to each well.” left out
as §3

In assay [15] the test system is SCC25. In words: alamarBlue cytotoxicity assay, SCC25. Conditions: Homo sapiens, SCC-25, 72 h of incubation. The protocol:
as §1, with “Cells treated with the vehicle (0.5% DMSO) used to dilute the tested compounds were used as negative controls. Before the end of the incubation period (4 h for cell lines and 24 h for PBMCs), 20 µL of alamarBlue stock solution (resazurin, Sigma-Aldrich, St. Louis, MO, USA) was added to each well.” left out
as §3

The test system of assay [16] is HCT-116. In words: alamarBlue cytotoxicity assay, HCT-116. Conditions: Homo sapiens; HCT-116, alamarBlue, 72 h of incubation. As for the experimental part:
as §1, §2

Turning to `COc1cccc2c1C(=O)c1c(O)c3c(c(O)c1C2=O)C[C@@](O)(C(=O)CO)C[C@@H]3O[C@H]1C[C@H](N)[C@H](O)[C@H](C)O1` [Doxorubicin], the 50% inhibitory concentration (IC50) in assay [1] turned out to be 10 nM; in [2] it was 340 nM; in assay [3], 50 nM; in assay [4], 2300 nM; in assay [5] it was 800 nM; in [6], 300 nM. Besides, the IC50 in [7] came to 100 nM; in [8], 3.09 µM; in [9], 1890 nM; in assay [10], 5.2 µM; in [11], 1500 nM; in assay [12], 70 nM. Also, the IC50 in assay [13] was 6.8 µM; in assay [14], 10 nM; in assay [15] it was 1400 nM; in assay [16], 200 nM.
